Experiments:
[1] = molecular target: Vascular endothelial growth factor receptor 2 (Homo sapiens, UniProt P35968)
Description: Inhibition of human VEGFR2 (805 to 1171 residues) by ELISA

[2] = molecular target: Fibroblast growth factor receptor 3 (Homo sapiens, UniProt P22607); experiment: biochemical; format: cell-based, Sf9
Description: Inhibition of wild type His-tagged human FGFR3 (455 to 763 residues) expressed in Sf9 insect cells by ELISA

Homo sapiens = organism: Homo sapiens; experiment: Selectivity ratio of IC50 for wild type His-tagged human FGFR3 (455 to 763 residues) expressed in Sf9 insect cells to IC50 for human VEGFR2 (805 to 1171 residues)

Chain of Vascular endothelial growth factor receptor 2 (P35968 whole entry): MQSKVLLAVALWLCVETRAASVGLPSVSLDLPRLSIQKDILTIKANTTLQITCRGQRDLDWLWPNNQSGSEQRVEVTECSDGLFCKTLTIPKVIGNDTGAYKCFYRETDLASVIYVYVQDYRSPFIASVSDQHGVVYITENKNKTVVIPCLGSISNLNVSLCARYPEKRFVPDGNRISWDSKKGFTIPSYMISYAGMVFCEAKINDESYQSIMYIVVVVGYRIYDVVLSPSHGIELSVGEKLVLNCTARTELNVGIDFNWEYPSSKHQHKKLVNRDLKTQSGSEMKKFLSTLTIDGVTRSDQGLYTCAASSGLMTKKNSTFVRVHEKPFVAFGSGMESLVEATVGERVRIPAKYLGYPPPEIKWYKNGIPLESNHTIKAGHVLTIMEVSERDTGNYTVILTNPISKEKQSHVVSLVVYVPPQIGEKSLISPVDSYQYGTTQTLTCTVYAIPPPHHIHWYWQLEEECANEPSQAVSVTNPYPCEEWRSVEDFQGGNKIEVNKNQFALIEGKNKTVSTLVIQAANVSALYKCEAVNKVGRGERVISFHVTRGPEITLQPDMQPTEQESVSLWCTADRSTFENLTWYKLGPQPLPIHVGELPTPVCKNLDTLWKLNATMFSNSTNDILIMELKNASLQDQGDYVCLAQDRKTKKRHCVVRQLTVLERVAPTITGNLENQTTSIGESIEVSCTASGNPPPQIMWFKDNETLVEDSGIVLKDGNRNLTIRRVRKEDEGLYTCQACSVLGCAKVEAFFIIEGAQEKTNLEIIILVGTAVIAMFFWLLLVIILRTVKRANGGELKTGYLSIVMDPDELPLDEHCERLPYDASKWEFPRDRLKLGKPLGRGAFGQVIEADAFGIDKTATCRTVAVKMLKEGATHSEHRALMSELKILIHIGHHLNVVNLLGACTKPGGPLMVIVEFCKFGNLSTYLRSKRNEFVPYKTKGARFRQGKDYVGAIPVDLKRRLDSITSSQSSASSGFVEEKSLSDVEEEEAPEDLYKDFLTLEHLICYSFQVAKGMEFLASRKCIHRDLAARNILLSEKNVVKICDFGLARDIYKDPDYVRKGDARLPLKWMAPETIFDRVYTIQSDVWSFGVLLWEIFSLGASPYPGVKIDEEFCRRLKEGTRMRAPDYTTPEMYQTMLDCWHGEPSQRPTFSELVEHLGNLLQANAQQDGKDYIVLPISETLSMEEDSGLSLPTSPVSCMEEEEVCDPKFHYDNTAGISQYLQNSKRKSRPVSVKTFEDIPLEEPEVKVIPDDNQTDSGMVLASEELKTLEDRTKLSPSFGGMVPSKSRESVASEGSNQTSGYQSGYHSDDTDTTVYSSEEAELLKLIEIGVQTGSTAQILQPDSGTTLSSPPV
Chain of Fibroblast growth factor receptor 3 (P22607 whole entry, the tested form may be a part): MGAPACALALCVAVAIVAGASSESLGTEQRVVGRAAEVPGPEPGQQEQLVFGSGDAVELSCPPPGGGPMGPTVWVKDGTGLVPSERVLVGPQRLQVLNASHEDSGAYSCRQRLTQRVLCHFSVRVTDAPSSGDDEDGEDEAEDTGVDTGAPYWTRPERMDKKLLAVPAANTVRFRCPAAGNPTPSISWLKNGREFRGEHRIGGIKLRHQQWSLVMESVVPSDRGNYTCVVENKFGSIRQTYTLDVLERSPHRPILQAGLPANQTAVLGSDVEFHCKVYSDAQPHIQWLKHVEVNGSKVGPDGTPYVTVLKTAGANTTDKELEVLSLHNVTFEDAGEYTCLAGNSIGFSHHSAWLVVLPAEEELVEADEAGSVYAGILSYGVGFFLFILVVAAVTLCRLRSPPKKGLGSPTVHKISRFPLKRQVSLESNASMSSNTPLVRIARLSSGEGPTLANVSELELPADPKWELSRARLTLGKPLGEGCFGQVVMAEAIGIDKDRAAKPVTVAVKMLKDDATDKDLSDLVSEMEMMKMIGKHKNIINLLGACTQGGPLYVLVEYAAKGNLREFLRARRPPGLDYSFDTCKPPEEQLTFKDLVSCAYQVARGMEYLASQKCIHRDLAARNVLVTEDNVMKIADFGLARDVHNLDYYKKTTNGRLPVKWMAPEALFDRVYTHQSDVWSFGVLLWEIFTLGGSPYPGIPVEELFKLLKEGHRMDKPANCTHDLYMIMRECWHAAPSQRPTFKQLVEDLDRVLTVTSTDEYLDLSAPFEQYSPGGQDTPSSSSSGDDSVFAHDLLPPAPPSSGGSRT

IC50 [1] [µM]	IC50 [2] [µM]	SMILES	Ratio IC50 (Homo sapiens)
140	120	Nc1ccc2nccnc2c1	–
5.5	0.33	COc1ccc(CNc2ccc3ncc(-c4cnn(C)c4)nc3c2)c(OC)c1	15
0.46	6.5	Cn1cc(-c2cnc3ccc(Cl)cc3n2)cn1	–
0.56	0.012	COc1cc(Nc2ccc3ncc(-c4cnn(C)c4)nc3c2)cc(OC)c1	–

— ChEMBL document CHEMBL4373688 (Medchemcomm, 2019)
